Results: publication PMC4190408, “Acylation of Glucagon-Like Peptide-2: Interaction with Lipid Membranes and In Vitro Intestinal Permeability” (PLoS ONE, 2014)
Side chains are listed from the residue outwards. Peptide text beside a SMILES is read from it. * marks the point of attachment. Palmitoyl = CCCCCCCCCCCCCCCC(=O)*; Lauroyl = CCCCCCCCCCCC(=O)*; Octanoyl = CCCCCCCC(=O)*; βAla = NCCC(=O)O

Test system: Caco-2 cells
Assay: Translocation across Caco-2 cell monolayers
Assay type: in vitro ADME, human
Details: for Caco-2 translocation relative to native GLP-2 (in words): Caco-2 monolayers
Protocol: Caco-2 cells (passage 40–65) were cultured routinely in DMEM with 10% (v/v) FBS, 1% (v/v) nonessential amino acids, 100 U penicillin, 0.1 mg/mL streptomycin and 2 mM L-glutamine. The Caco-2 cells were seeded at a density of [drawing 60] cells/well on 12 well Transwells plates and grown for 14–16 days in DMEM with media change every second day. The cell layer was confirmed to consist of a single monolayer of cells by fixing and staining the cell layer, and visualizing by fluorescence microscopy.
Before transport experiments, DMEM medium was changed to HBSS buffer (containing 10 mM HEPES and 0.1% (w/v) OVA; 0.4 mL apical side and 1 mL basolateral) and left to equilibrate for 60 minutes. Buffer was replaced apically by 0.4 mL test solution at time zero, and the plates were incubated at [drawing 61] and 5% [drawing 62] with gentle shaking. Test solutions contained 100 [drawing 63] peptide and 0.8 [drawing 64] [ [drawing 65] ]mannitol (a permeability marker). Basolateral samples of 200 [drawing 66] were taken every 15 minutes for 1 hour, and replaced by buffer. The apical test solution and basolateral samples were diluted and analyzed for peptide content with the luciferase assay and for [ [drawing 67] ]mannitol content in a scintillation counter (Packard TopCount), after mixing 1∶1 with scintillation fluid.
The integrity of cell monolayers before, during, and after experiments was verified by measuring the translocation of radioactively labelled mannitol and the transepithelial electrical resistance (TEER), using a Milicell ERS-2 epithelial volt-ohm meter (Millipore, USA). Mannitol translocation and TEER values were not affected by addition of peptide or analogues compared to buffer.
The Caco-2 translocation of peptide or mannitol over Caco-2 layers is expressed as the apparent permeability ( [drawing 72] ), given by: [drawing 73] (6) where [drawing 74] is the steady-state flux of peptide (pmol/s), [drawing 75] is the surface area of the cell monolayer (1.12 [drawing 76] ), and [drawing 77] is the initial sample concentration added to the cell layer.

[1] = apical to basolateral, 1 hour, no enhancer, 3 separate experiments each with 4 repeats

| Structure (SMILES) | Caco-2 translocation in the presence of SDS (in words) (Caco-2, apical to basolateral, SDS) | increase in peptide permeability with SDS compared to peptide alone (Caco-2, apical to basolateral, SDS (transcellular enhancer), 2 separate experiments each with 4 repeats) | Caco-2 translocation relative to native GLP-2 (in words) [1] | Caco-2 translocation with absorption enhancer, times the native peptide (Caco-2, apical to basolateral, in the presence of EGTA (paracellular) or SDS (transcellular), 2 separate experiments each with 4 repeats) | increase in Caco-2 translocation compared to native GLP-2 (factor) (Caco-2 monolayers 14-16 days, apical to basolateral, 100 (unit is a drawing) peptide, HBSS with 10 mM HEPES and 0.1% OVA, 1 hour, luciferase assay read-out, no enhancer, 3 separate experiments each with 4 repeats) |
| --- | --- | --- | --- | --- | --- |
| CCCCCCCCCCCCCCCC(=O)NCCC(=O)NCCCC[C@H](NC(=O)[C@H](CC(N)=O)NC(=O)[C@H](CC(=O)O)NC(=O)[C@H](CC(C)C)NC(=O)[C@@H](NC(=O)[C@@H](NC(=O)[C@H](CC(N)=O)NC(=O)[C@H](CCSC)NC(=O)[C@H](CCC(=O)O)NC(=O)[C@H](CC(=O)O)NC(=O)[C@H](CO)NC(=O)[C@H](Cc1ccccc1)NC(=O)[C@H](CO)NC(=O)CNC(=O)[C@H](CCC(=O)O)NC(=O)[C@H](C)NC(=O)[C@@H](N)Cc1c[nH]cn1)[C@@H](C)O)[C@@H](C)CC)C(=O)N[C@@H](C)C(=O)N[C@@H](C)C(=O)N[C@@H](CCCNC(=N)N)C(=O)N[C@@H](CC(=O)O)C(=O)N[C@@H](Cc1ccccc1)C(=O)N[C@H](C(=O)N[C@@H](CC(N)=O)C(=O)N[C@@H](Cc1c[nH]c2ccccc12)C(=O)N[C@@H](CC(C)C)C(=O)N[C@H](C(=O)N[C@@H](CCC(N)=O)C(=O)N[C@H](C(=O)N[C@@H](CCCNC(=N)N)C(=O)N[C@H](C(=O)N[C@H](C(=O)N[C@@H](CC(=O)O)C(=O)O)[C@@H](C)O)[C@@H](C)CC)[C@@H](C)O)[C@@H](C)CC)[C@@H](C)CC [c16] (H-HAEGSFSDEMNTILDNK([βAla-Palmitoyl])AARDFINWLIQTRITD-OH) | remains lower than for the c12 peptide | the increase is greater | decreases it slightly |  |  |
| CCCCCCCC(=O)NCCC(=O)NCCCC[C@H](NC(=O)[C@H](CC(N)=O)NC(=O)[C@H](CC(=O)O)NC(=O)[C@H](CC(C)C)NC(=O)[C@@H](NC(=O)[C@@H](NC(=O)[C@H](CC(N)=O)NC(=O)[C@H](CCSC)NC(=O)[C@H](CCC(=O)O)NC(=O)[C@H](CC(=O)O)NC(=O)[C@H](CO)NC(=O)[C@H](Cc1ccccc1)NC(=O)[C@H](CO)NC(=O)CNC(=O)[C@H](CCC(=O)O)NC(=O)[C@H](C)NC(=O)[C@@H](N)Cc1c[nH]cn1)[C@@H](C)O)[C@@H](C)CC)C(=O)N[C@@H](C)C(=O)N[C@@H](C)C(=O)N[C@@H](CCCNC(=N)N)C(=O)N[C@@H](CC(=O)O)C(=O)N[C@@H](Cc1ccccc1)C(=O)N[C@H](C(=O)N[C@@H](CC(N)=O)C(=O)N[C@@H](Cc1c[nH]c2ccccc12)C(=O)N[C@@H](CC(C)C)C(=O)N[C@H](C(=O)N[C@@H](CCC(N)=O)C(=O)N[C@H](C(=O)N[C@@H](CCCNC(=N)N)C(=O)N[C@H](C(=O)N[C@H](C(=O)N[C@@H](CC(=O)O)C(=O)O)[C@@H](C)O)[C@@H](C)CC)[C@@H](C)O)[C@@H](C)CC)[C@@H](C)CC [c8] (H-HAEGSFSDEMNTILDNK([βAla-Octanoyl])AARDFINWLIQTRITD-OH) |  |  | increase the translocation relative to native GLP-2 |  |  |
| CCCCCCCCCCCC(=O)NCCC(=O)NCCCC[C@H](NC(=O)[C@H](CC(N)=O)NC(=O)[C@H](CC(=O)O)NC(=O)[C@H](CC(C)C)NC(=O)[C@@H](NC(=O)[C@@H](NC(=O)[C@H](CC(N)=O)NC(=O)[C@H](CCSC)NC(=O)[C@H](CCC(=O)O)NC(=O)[C@H](CC(=O)O)NC(=O)[C@H](CO)NC(=O)[C@H](Cc1ccccc1)NC(=O)[C@H](CO)NC(=O)CNC(=O)[C@H](CCC(=O)O)NC(=O)[C@H](C)NC(=O)[C@@H](N)Cc1c[nH]cn1)[C@@H](C)O)[C@@H](C)CC)C(=O)N[C@@H](C)C(=O)N[C@@H](C)C(=O)N[C@@H](CCCNC(=N)N)C(=O)N[C@@H](CC(=O)O)C(=O)N[C@@H](Cc1ccccc1)C(=O)N[C@H](C(=O)N[C@@H](CC(N)=O)C(=O)N[C@@H](Cc1c[nH]c2ccccc12)C(=O)N[C@@H](CC(C)C)C(=O)N[C@H](C(=O)N[C@@H](CCC(N)=O)C(=O)N[C@H](C(=O)N[C@@H](CCCNC(=N)N)C(=O)N[C@H](C(=O)N[C@H](C(=O)N[C@@H](CC(=O)O)C(=O)O)[C@@H](C)O)[C@@H](C)CC)[C@@H](C)O)[C@@H](C)CC)[C@@H](C)CC [c12] (H-HAEGSFSDEMNTILDNK([βAla-Lauroyl])AARDFINWLIQTRITD-OH) |  |  | increase the translocation relative to native GLP-2 | approximately 1.5 | ~1.5 |
